The nature of one data set: physchem. To be noted: hplc.
For data set [1] the following is noted: hplc.
The test system of a further data set is Phytophthora infestans. It is filed as in vivo. The conditions noted are these: tomato, protective; application rate of 50 g/ha; 3 days after the inoculation.
For a further data set, the system named is Plasmopara viticola. Description: Plasmopara Test (Grapevine)/protective. It is filed as in vivo. To be noted: protective, application rate of 50 g/ha, 6 days after the inoculation.
Setting [2] is: E/Z mixture, second of two values (Z position).

The structures appear in SMILES notation.

As usually defined, the chromatographic logP is lipophilicity estimated from chromatographic retention. By logP is commonly meant the decadic logarithm of the partition coefficient of the neutral form, usually between octanol and water.

As for `CCON=C(C(=O)NC(C)Cc1ccc(OCC)c(OC)c1)c1ccc2c(c1)CCCC2` (stereo not shown) [Example 12], in “logP determined by HPLC” (single value (single isomer)), the chromatographic logP came out at 4.41.

Consider `CCOc1ccc(CC(C)NC(=O)/C(=N\OC)c2ccc(Br)cc2)cc1OC` (stereo not shown) [Example 5], for which the chromatographic logP in “physchem” turned out to be 3.64.

`CCOc1ccc(CC(C)NC(=O)C(=NOC)c2ccc(Cl)cc2)cc1OC` (stereo not shown) [Example 4] displayed a chromatographic logP in the data set “physchem” of 3.26. This compound displayed a logP in data set [1] of 3.56.

On to `CCON=C(C(=O)NC(C)Cc1ccc(OCC)c(OC)c1)c1ccc2c(c1)CCC2` (stereo not shown) [Example 16], for which the chromatographic logP was found to be 3.79 in “logP determined by HPLC” (E/Z mixture, (E position)) and 4.1 in “logP determined by HPLC” (setting [2]).

In “logP determined by HPLC” (single value (single isomer)), `CCO/N=C(\C(=O)NC(C)Cc1ccc(OCC)c(OC)c1)c1ccc(CC)cc1` (stereo not shown) [Example 19] had a chromatographic logP of 4.05.

Take `CCON=C(C(=O)NC(C)Cc1ccc(OCC)c(OC)c1)c1ccc(Br)cc1` (stereo not shown) [Example 9]: the chromatographic logP in “logP determined by HPLC” (E/Z mixture, (E position)) was 3.69; in the data set “logP determined by HPLC” (setting [2]), 4.01.

As to `CCON=C(C(=O)NC(C)Cc1ccc(OCC)c(OC)c1)c1ccc(C)cc1` (stereo not shown) [Example 14], the chromatographic logP in “logP determined by HPLC” (E/Z mixture, (E position)) stood at 3.38; in the data set “logP determined by HPLC” (setting [2]), 3.71. Moreover, the efficacy with Phytophthora infestans is recorded as no less than 86%; with Plasmopara viticola it was no less than 96%.

Compound `CCOc1ccc(CC(C)NC(=O)C(=NOC)c2ccc(C)cc2)cc1OC` (stereo not shown) [Example 10] gave a chromatographic logP in “physchem” of 3.04. The logP in data set [1] is given as 3.34.

With `CCON=C(C(=O)NC(C)Cc1ccc(OCC)c(OC)c1)c1ccc(Cl)cc1` (stereo not shown) [Example 11], the chromatographic logP in “logP determined by HPLC” (E/Z mixture, (E position)) turned out to be 3.59; in the data set “logP determined by HPLC” (setting [2]) it was 3.91. The efficacy in the data set on Phytophthora infestans is recorded as no less than 86%.

Turning to `CCOc1ccc(CC(C)NC(=O)C(=NOC)c2ccc3c(c2)CCCC3)cc1OC` (stereo not shown) [Example 1, N-[2-(4-ethoxy-3-methoxyphenyl)-1-methylethyl]-2-methoxyimino-2-(5,6,7,8-tetrahydronaphthalin-2-yl)-acetic acid amide], the chromatographic logP came to 3.72 in the data set “logP determined by HPLC” (E/Z mixture, (E position)) and 4.04 in the data set “logP determined by HPLC” (setting [2]). This compound also gave an efficacy in the data set with Phytophthora infestans of no less than 86%.

In the data set “logP determined by HPLC” (single value (single isomer)), `CCO/N=C(/C(=O)NC(C)Cc1ccc(OCC)c(OC)c1)c1ccc2c(c1)CCC2` (stereo not shown) [Example 18] returned a chromatographic logP of 3.79.

As to `CCO/N=C(\C(=O)NC(C)Cc1ccc(OCC)c(OC)c1)c1ccc2c(c1)CCC2` (stereo not shown) [Example 17], the chromatographic logP in “logP determined by HPLC” (single value (single isomer)) is 4.1.

Consider `CCON=C(C(=O)NC(C)Cc1ccc(OCC)c(OC)c1)c1ccc(CC)cc1` (stereo not shown) [Example 15], for which the chromatographic logP in the data set “logP determined by HPLC” (E/Z mixture, (E position)) was 3.73; in the data set “logP determined by HPLC” (setting [2]), 4.05.

In the case of `CCON=C(C(=O)NC(C)Cc1ccc(OCC)c(OC)c1)c1ccc2c(c1)CCCC2` (stereo not shown) [Example 8], the chromatographic logP in “logP determined by HPLC” (E/Z mixture, (E position)) was 4.07; in “logP determined by HPLC” (setting [2]), 4.41.

For `CCO/N=C(/C(=O)NC(C)Cc1ccc(OCC)c(OC)c1)c1ccc2c(c1)CCCC2` (stereo not shown) [Example 13], in “logP determined by HPLC” (single value (single isomer)), the chromatographic logP was determined as 4.07. In the data set on Phytophthora infestans, this compound showed an efficacy of no less than 86%.

As for `CCOc1ccc(CC(C)NC(=O)C(=NOC)c2ccc3c(c2)CCC3)cc1OC` (stereo not shown) [Example 3], the chromatographic logP was found to be 3.13 in “logP determined by HPLC” (E/Z mixture, (E position)) and 3.44 in “logP determined by HPLC” (setting [2]).

Regarding `CCOc1ccc(CC(C)NC(=O)/C(=N/OC)c2ccc(Br)cc2)cc1OC` (stereo not shown) [Example 6], the chromatographic logP in “physchem” came to 3.34. Also, the efficacy was no less than 86% in the data set with Phytophthora infestans and no less than 96% in the data set on Plasmopara viticola.

Regarding `CCO/N=C(/C(=O)NC(C)Cc1ccc(OCC)c(OC)c1)c1ccc(Br)cc1` (stereo not shown) [Example 20], in “logP determined by HPLC” (single value (single isomer)), the chromatographic logP worked out at 3.69.

`CCOc1ccc(CC(C)NC(=O)/C(=N/OC)c2ccc(Cl)cc2)cc1OC` (stereo not shown) [Example 7]: the chromatographic logP in the data set “physchem” stood at 3.26. Also, the efficacy in the data set on Phytophthora infestans is no less than 86%; with Plasmopara viticola, no less than 96%.

For the compound `CCOc1ccc(CC(C)NC(=O)C(=NOC)c2ccc(Br)cc2)cc1OC` (stereo not shown) [Example 2], the chromatographic logP in the data set “physchem” stood at 3.34. The compound also yielded a logP in data set [1] of 3.64.

The values above are taken from US6313173A, “Glyoxylic acid amides” (Bayer Aktiengesellschaft, priority 1996, dated 2001).
